# Literature values as cited in patent publication US20190231795A1, “METHODS FOR TREATING CANCER AND PREDICTING DRUG RESPONSIVENESS IN CANCER PATIENTS” (LiPlasome Pharma ApS, priority 2018, published 2019).
# Legend:
# [1] = tested on: DNA platinum adducts (GG-Pt) in tumor tissue; conditions: comparison value
structure (smiles),measurement,setting,value
"N.N.[Cl][Pt][Cl] [conventional cisplatin, cisplatin]",increase of DNA-platinum (GG-Pt) in tumor tissue seen with conventional cisplatin,[1],4-6 fold
same,response rate,metastatic breast cancer,10%
